Measured values taken from US20230416329A1, “A PEPTIDE WITH DISULFIDE BONDS AND INHIBITORY ACTIVITY AGAINST SERINE PROTEASES, DERIVED HYBRID PEPTIDES THEREOF, AND USES THEREOF” (INSTITUTE OF MATERIA MEDICA , CHINESE ACADEMY OF MEDICAL …, priority 2020, published 2023).
Where two headings read alike, the source gives them in different places.

How the values were obtained:
DPP-IV = DPP-IV (Homo sapiens, UniProt P27487); assay: Tolerance of GLP-1 and its analogues to DPP-IV (RP-HPLC remaining peak area); assay type: in vitro ADME; conditions: peptide 25 μM, DPP-IV 0.5 ng/μL, 37° C.; for Remaining peak area (%)/DPP-IV: 0.0 h; for remaining at 0.5 h, 25 μM / remaining at 2 h, 25 μM / remaining at 4 h, 25 μM / remaining at 8 h, 25 μM / remaining at 12 h, 25 μM: isolated DPP-IV enzyme in buffer, pH 8
Method: (§1) Mix by centrifugation at 8000 rpm for 30 seconds.
(2) Arrange a certain volume of 0.005 μg/μL DPP-IV solution in another sterile EP.

NEP24.11 = NEP24.11 (Homo sapiens, UniProt P08473); assay: Tolerance of GLP-1 and its analogues to NEP24.11 (RP-HPLC remaining peak area); assay type: in vitro ADME; conditions: peptide 30 μM, NEP24.11 1.0 ng/μL; for Remaining peak area (%)/NEP24.11: 0.0 h; for remaining at 0.5 h, 30 μM / remaining at 2 h, 30 μM / remaining at 4 h, 30 μM / remaining at 8 h, 30 μM: isolated NEP24.11 enzyme in buffer; for remaining at 0.5 h, 30 μM: pH 7.4, 0.5 h; for remaining at 2 h, 30 μM: pH 7.4, 2.0 h; for remaining at 4 h, 30 μM: pH 7.4, 4.0 h
Method: as §1
Arrange a certain volume of 0.04 μg/μL NEP24.11 enzyme solution in another sterile EP.

trypsin = target: T1, trypsin (Bos taurus, UniProt P00760); assay: in vitro; conditions: isolated enzyme trypsin, pH 7.8
T1 sequence (P00760 24-246): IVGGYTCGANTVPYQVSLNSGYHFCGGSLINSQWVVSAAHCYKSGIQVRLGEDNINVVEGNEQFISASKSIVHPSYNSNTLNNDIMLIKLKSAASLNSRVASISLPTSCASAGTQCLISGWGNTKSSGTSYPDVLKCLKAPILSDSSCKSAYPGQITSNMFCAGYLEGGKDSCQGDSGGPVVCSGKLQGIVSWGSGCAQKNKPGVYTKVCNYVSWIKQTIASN
Summary of the method: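 Remaining RP-HPLC peak area tracks undigested peptide over time. Samples were quenched with 10% TFA at time points between 1.5 and 60 min during 37 °C digestion. Trypsin was added from a 0.05 μg/μL solution after 5 min of thermal equilibration.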

chymotrypsin = chymotrypsin (Bos taurus, UniProt P00766); assay: in vitro; conditions: isolated enzyme chymotrypsin, pH 7.8, Remaining peak area (%)/chymotrypsin
Summary of the method: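 RP-HPLC peak area tracked intact peptide after 37 °C digestion with chymotrypsin (0.05 μg/μL solution, 5 min preincubation). Samples were withdrawn at 1.5-60.0 min and stopped with 10% TFA.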

[1] = Stability of GLP-1 and its analogues in human serum; conditions: 25% (v/v) human serum; for Remaining peak area (%)/human serum: 0.0 h, peptide 0.03 mM, 37° C.; for remaining at 0.5 h, 0.03 mM / remaining at 2 h, 0.03 mM / remaining at 4 h, 0.03 mM / remaining at 8 h, 0.03 mM / remaining at 12 h, 0.03 mM: human, pH 7
Method: The amount of the prototype peptide at 0 h was taken as 100%. At different time point, 100 μL aliquots was taken out, and 300 μL precooled anhydrous methanol was added to terminate the reaction. The remaining percentage (%) of the peptide relative to the prototype peptide at that time point was analyzed by reverse phase high performance liquid chromatography. The experiment was performed with three replicates, and data were expressed as “mean±standard deviation”. The sample was subjected to high-speed centrifugation, supernatant extraction, and freeze drying, followed by dissolution in 50% (v/v) methanol/water solution, and analyzed by reverse phase high performance liquid chromatography. The experiment was performed with three replicates, and data were expressed as “mean±standard deviation”.
Invert and mix thoroughly, then leave at −20° C. overnight. At the same time, take three sterile EP tubes and add 25 μL of human serum, 75 μL of 50 mM Tris-HCl buffer (pH7.0), and 300 μL of pre-cold absolute methanol. Invert and mix thoroughly, then leave at −20° C. overnight as a negative control, so as to eliminate the interference of proteins or peptides contained in human serum at the peak time of the target peptide after methanol precipitation.
Arrange a certain volume of human serum in another sterile EP. Incubate the EP tubes containing peptides and serum at 37° C. for 10 min, and add 137.5 μL of human serum to each EP tube containing peptides and mix well. […] Start timing and remove 100 μL of reaction solution at 0.5, 2.0, 4.0, 8.0, and 12.0 h later, respectively. Add 300 μL of pre-cold absolute methanol. Invert and mix thoroughly, then leave at −20° C. overnight. […] There are three replicates at each time point, and the peak area of the peptide at each time point is detected using reverse phase high-performance liquid chromatography (RP-HPLC). The ratio of the remaining peak area of the sample at detection time T (h) to the peak area of the prototype peptide at 0 h is calculated as the remaining percentage (%) of the peptide.

[2] = pH 7.4, 8.0 h, 37° C., read-out: Remaining peak area (%)/NEP24.11

Chain of NEP24.11 (P08473 whole entry): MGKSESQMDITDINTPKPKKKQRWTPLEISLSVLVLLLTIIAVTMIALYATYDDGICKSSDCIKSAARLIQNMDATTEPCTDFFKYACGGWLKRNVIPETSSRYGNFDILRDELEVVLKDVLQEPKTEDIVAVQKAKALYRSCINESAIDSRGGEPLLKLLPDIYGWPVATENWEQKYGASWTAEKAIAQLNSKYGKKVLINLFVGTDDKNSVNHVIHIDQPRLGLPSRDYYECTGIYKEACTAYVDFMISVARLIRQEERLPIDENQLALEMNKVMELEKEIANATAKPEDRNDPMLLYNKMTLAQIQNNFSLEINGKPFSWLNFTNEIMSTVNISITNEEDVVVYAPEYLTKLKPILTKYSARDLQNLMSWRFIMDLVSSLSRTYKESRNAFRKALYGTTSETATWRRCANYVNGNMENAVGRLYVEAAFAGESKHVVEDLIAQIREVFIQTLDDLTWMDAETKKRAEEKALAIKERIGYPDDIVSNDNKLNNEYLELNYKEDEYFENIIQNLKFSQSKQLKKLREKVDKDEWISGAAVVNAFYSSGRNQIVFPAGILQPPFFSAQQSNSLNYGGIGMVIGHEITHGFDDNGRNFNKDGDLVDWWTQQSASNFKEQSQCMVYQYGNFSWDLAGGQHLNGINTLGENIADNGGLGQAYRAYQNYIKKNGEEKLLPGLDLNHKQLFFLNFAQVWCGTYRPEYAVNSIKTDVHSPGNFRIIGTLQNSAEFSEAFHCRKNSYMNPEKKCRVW
Chain of DPP-IV (P27487 whole entry, species assumed): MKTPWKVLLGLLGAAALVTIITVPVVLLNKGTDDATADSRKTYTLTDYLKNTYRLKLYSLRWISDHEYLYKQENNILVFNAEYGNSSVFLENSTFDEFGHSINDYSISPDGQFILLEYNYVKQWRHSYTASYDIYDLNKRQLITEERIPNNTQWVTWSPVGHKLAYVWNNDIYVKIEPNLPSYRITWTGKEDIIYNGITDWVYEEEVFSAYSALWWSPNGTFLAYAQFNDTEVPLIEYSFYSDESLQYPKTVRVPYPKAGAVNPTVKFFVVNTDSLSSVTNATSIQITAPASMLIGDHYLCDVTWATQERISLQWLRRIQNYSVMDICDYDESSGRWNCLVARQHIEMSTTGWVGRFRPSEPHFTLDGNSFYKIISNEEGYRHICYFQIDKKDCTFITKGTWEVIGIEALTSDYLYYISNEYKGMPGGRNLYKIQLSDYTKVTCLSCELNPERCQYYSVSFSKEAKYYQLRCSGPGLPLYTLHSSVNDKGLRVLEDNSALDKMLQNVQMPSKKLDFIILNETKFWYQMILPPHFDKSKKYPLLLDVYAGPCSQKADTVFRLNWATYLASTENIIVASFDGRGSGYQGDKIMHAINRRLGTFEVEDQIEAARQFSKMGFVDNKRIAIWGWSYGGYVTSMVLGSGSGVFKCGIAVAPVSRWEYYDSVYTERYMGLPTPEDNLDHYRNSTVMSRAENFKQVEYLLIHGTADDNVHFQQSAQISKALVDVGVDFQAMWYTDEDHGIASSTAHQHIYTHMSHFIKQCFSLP

| Structure (SMILES) | Remaining peak area (%)/DPP-IV (DPP-IV) [%] | remaining at 0.5 h, 25 μM (DPP-IV) [%] | remaining at 2 h, 25 μM (DPP-IV) [%] | remaining at 4 h, 25 μM (DPP-IV) [%] | remaining at 8 h, 25 μM (DPP-IV) [%] | remaining at 12 h, 25 μM (DPP-IV) [%] | Remaining peak area (%)/NEP24.11 (NEP24.11; 37° C.) [%] | remaining at 0.5 h, 30 μM (NEP24.11; 37° C.) [%] | remaining at 2 h, 30 μM (NEP24.11; 37° C.) [%] | remaining at 4 h, 30 μM (NEP24.11; 37° C.) [%] | remaining at 8 h, 30 μM (NEP24.11; [2]) [%] | remaining at 0.025 h, 60 μM (trypsin) [%] | remaining at 0.05 h, 60 μM (trypsin) [%] | remaining at 0.075 h, 60 μM (trypsin) [%] | remaining at 0.1 h, 60 μM (trypsin) [%] | remaining at 0.15 h, 60 μM (trypsin) [%] | remaining at 0.25 h, 60 μM (trypsin) [%] | remaining at 0.5 h, 60 μM (trypsin) [%] | remaining at 1 h, 60 μM (trypsin) [%] | remaining at 0.025 h, 60 μM (chymotrypsin) [%] | other results |
| --- | --- | --- | --- | --- | --- | --- | --- | --- | --- | --- | --- | --- | --- | --- | --- | --- | --- | --- | --- | --- | --- |
| CC[C@H](C)[C@H](NC(=O)[C@H](Cc1ccccc1)NC(=O)[C@H](CCC(=O)O)NC(=O)[C@H](CCCCN)NC(=O)[C@H](C)NC(=O)[C@H](C)NC(=O)[C@H](CCC(N)=O)NC(=O)CNC(=O)[C@H](CCC(=O)O)NC(=O)[C@H](CC(C)C)NC(=O)[C@H](Cc1ccc(O)cc1)NC(=O)[C@H](CO)NC(=O)[C@H](CO)NC(=O)[C@@H](NC(=O)[C@H](CC(=O)O)NC(=O)[C@H](CO)NC(=O)[C@@H](NC(=O)[C@H](Cc1ccccc1)NC(=O)[C@@H](NC(=O)CNC(=O)[C@H](CCC(=O)O)NC(=O)[C@H](C)NC(=O)[C@H](Cc1c[nH]cn1)NC(=O)CNC(=O)CNC(=O)[C@@H](NC(=O)[C@@H]1CCCN1C(=O)[C@@H](NC(=O)CN)[C@@H](C)CC)[C@@H](C)CC)[C@@H](C)O)[C@@H](C)O)C(C)C)C(=O)N[C@@H](C)C(=O)N[C@@H](Cc1c[nH]c2ccccc12)C(=O)N[C@@H](CC(C)C)C(=O)N[C@H](C(=O)N[C@@H](CCCCN)C(=O)NCC(=O)N[C@@H](CCCNC(=N)N)C(=O)NCC(=O)NCC(=O)N[C@@H](CCCCN)C(=O)NCC(=O)N[C@@H](CCCNC(=N)N)C(=O)N[C@H]1CSSC[C@@H](C(=O)N[C@@H](Cc2ccccc2)C(=O)N2CCC[C@H]2C(=O)O)NC(=O)[C@H]([C@@H](C)CC)NC(=O)[C@@H]2CCCN2C(=O)[C@@H]2CCCN2C(=O)[C@H]([C@@H](C)CC)NC(=O)[C@H](CO)NC(=O)[C@H](CCCCN)NC(=O)[C@H]([C@@H](C)O)NC1=O)C(C)C [D-GLP-1-BT1] | 100.0 ± 0.0 | 88 ± 6.2 | 95.9 ± 2.3 | 96.9 ± 2 | 92 ± 3.9 | 79 ± 4.6 | 100.0 ± 0.0 | 80.3 ± 3.6 | 85.8 ± 2.7 | 80.1 ± 2.1 | 78.2 ± 3.9 | 96.9 ± 3.1 | 100 ± 2.5 | 96.5 ± 2.1 | 97.3 ± 3.6 | 98 ± 3.1 | 95.9 ± 3.2 | 98.1 ± 4.4 | 91 ± 7.6 | 67.1 ± 4.9 | remaining at 8 h, 30 μM (NEP24.11; pH 7.4, 8 hours, read-out: remaining amount after NEP24.11 hydrolysis): ~80%; remaining at 0.05 h, 60 μM (chymotrypsin): 55.2 ± 0.6%; remaining at 0.075 h, 60 μM (chymotrypsin): 47.1 ± 1.4%; remaining at 0.1 h, 60 μM (chymotrypsin): 40.4 ± 1%; remaining at 0.15 h, 60 μM (chymotrypsin): 31.3 ± 0.7%; Remaining peak area (%)/human serum [1]: 100.0 ± 0.0%; serum stability (in words) [1]: good serum stability; remaining at 0.5 h, 0.03 mM [1]: 88.2%; remaining at 2 h, 0.03 mM [1]: 92 ± 5.9%; remaining at 4 h, 0.03 mM [1]: 78.7 ± 5.7%; remaining at 8 h, 0.03 mM [1]: 58.2%; remaining at 12 h, 0.03 mM [1]: 43.6 ± 0.3% |
| CC[C@H](C)[C@H](NC(=O)[C@H](Cc1ccccc1)NC(=O)[C@H](CCC(=O)O)NC(=O)[C@H](CCCCN)NC(=O)[C@H](C)NC(=O)[C@H](C)NC(=O)[C@H](CCC(N)=O)NC(=O)CNC(=O)[C@H](CCC(=O)O)NC(=O)[C@H](CC(C)C)NC(=O)[C@H](Cc1ccc(O)cc1)NC(=O)[C@H](CO)NC(=O)[C@H](CO)NC(=O)[C@@H](NC(=O)[C@H](CC(=O)O)NC(=O)[C@H](CO)NC(=O)[C@@H](NC(=O)[C@H](Cc1ccccc1)NC(=O)[C@@H](NC(=O)CNC(=O)[C@H](CCC(=O)O)NC(=O)[C@H](C)NC(=O)[C@H](Cc1c[nH]cn1)NC(=O)CNC(=O)CNC(=O)[C@@H](NC(=O)[C@@H]1CCCN1C(=O)[C@@H](NC(=O)CN)[C@@H](C)CC)[C@@H](C)CC)[C@@H](C)O)[C@@H](C)O)C(C)C)C(=O)N[C@@H](C)C(=O)N[C@@H](Cc1c[nH]c2ccccc12)C(=O)N[C@@H](CC(C)C)C(=O)N[C@H](C(=O)N[C@@H](CCCCN)C(=O)NCC(=O)N[C@@H](CCCNC(=N)N)C(=O)NCC(=O)NCC(=O)N[C@@H](CCCCN)C(=O)NCC(=O)N[C@H]1CSSC[C@@H](C(=O)N[C@@H](Cc2ccccc2)C(=O)O)NC(=O)[C@H]([C@@H](C)CC)NC(=O)[C@@H]2CCCN2C(=O)[C@@H]2CCCN2C(=O)[C@H]([C@@H](C)CC)NC(=O)[C@H](CO)NC(=O)[C@H](CCCCN)NC(=O)[C@H]([C@@H](C)O)NC(=O)[C@H](C)NC(=O)[C@H](CCCNC(=N)N)NC(=O)CNC1=O)C(C)C [D-GLP-1-BT9] | 100.0 ± 0.0 | 101 ± 1.2 | 98.7 ± 0.6 | 98.8 ± 2.3 | 100 ± 6.5 | 94 ± 2 | 100.0 ± 0.0 | 88.4 ± 2.3 | 79.3 ± 2.6 | 69.8 ± 2.6 | 58.6 ± 0.7 | 90.3 ± 1.9 | 92.2 ± 3.7 | 97.3 ± 1 | 94 ± 1.5 | 94.9 ± 1.8 | 88.7 ± 3 | 90.8 ± 3.6 | 88.4 ± 3.9 | 54.9 ± 3.8 | remaining at 0.05 h, 60 μM (chymotrypsin): 43.3 ± 7%; remaining at 0.075 h, 60 μM (chymotrypsin): 34.5 ± 7.4%; remaining at 0.1 h, 60 μM (chymotrypsin): 27.1 ± 2.9%; remaining at 0.15 h, 60 μM (chymotrypsin): 17.4 ± 4.9%; Remaining peak area (%)/human serum [1]: 100.0 ± 0.0%; serum stability (in words) [1]: good serum stability; remaining at 0.5 h, 0.03 mM [1]: 80.4 ± 4%; remaining at 2 h, 0.03 mM [1]: 53.6 ± 7.6%; remaining at 4 h, 0.03 mM [1]: 46.5 ± 3.5%; remaining at 8 h, 0.03 mM [1]: 7.2 ± 1.3%; remaining at 12 h, 0.03 mM [1]: 9.1 ± 3.9% |
